In patent US3958000A, “Fungicidal 2-arylthio-, 2-alkylthio- and 2-haloalkylthio-1,2,4-oxadiazolidine-3,5-diones” (Chevron Research Company, priority 1975, dated 1976):

Experiments:
Assay type in all cases: cell-based
[1] = test system: Monolinia fructicola; experiment: Fungal spore control (spore slide-germination) against Monolinia fructicola; conditions: Conc. 10 ppm, overnight in moist chamber, read-out: % Control (percent inhibition of germination of fungus spores)
[2] = test system: Botrytis cinerea; experiment: Fungal spore control (spore slide-germination) against Botrytis cinerea; conditions: Conc. 10 ppm, overnight in moist chamber, read-out: % Control (percent inhibition of germination of fungus spores)
[3] = test system: Alternaria solani; experiment: Fungal spore control (spore slide-germination) against Alternaria solani; conditions: Conc. 4 ppm, overnight in moist chamber, read-out: % Control (percent inhibition of germination of fungus spores)

O=c1on(SC(Cl)(Cl)Cl)c(=O)n1C1CCCCC1 [Compound 1, 2-trichloromethylthio-4-cyclohexyl-1,2,4-oxadiazolidine-3,5-dione]
inhibition at 10 ppm [1]: 100% | inhibition at 10 ppm [2]: 100% | inhibition at 4 ppm [3]: 78%

CC(C)n1c(=O)on(SC(Cl)(Cl)Cl)c1=O [Compound 3]
inhibition at 10 ppm [1]: 100% | inhibition at 10 ppm [2]: 100% | inhibition at 4 ppm [3]: 99%
